Molecular target: T1, recombinant IL4I1 (Homo sapiens, UniProt Q96RQ9)
T1 construct: purchased R&D Systems 5684-AO-020
T1 sequence (Q96RQ9 22-567): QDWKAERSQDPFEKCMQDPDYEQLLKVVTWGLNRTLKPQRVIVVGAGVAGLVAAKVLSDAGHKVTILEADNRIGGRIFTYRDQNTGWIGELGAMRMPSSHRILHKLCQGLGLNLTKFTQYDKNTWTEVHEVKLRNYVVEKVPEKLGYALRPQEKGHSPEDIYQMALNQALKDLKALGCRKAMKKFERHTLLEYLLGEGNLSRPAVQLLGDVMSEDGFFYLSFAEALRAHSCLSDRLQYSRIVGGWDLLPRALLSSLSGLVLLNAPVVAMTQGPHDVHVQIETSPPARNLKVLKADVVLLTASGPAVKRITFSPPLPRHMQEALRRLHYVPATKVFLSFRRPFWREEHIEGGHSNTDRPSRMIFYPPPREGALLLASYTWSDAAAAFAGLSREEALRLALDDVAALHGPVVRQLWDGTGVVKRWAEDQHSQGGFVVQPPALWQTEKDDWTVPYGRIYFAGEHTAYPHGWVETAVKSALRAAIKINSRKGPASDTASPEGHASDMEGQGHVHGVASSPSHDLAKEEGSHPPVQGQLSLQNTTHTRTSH
Assay: IL4I1 Enzymatic Assay (Amplex Red/HRP coupled detection of H2O2, fluorescence)
Type: biochemical
Conditions: 1 nM recombinant IL4I1; four-hour pre-incubation with compound; 1 mM each Phe, Tyr, Trp; ten-point titration
Method in brief: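 H2O2 output was coupled to resorufin fluorescence (ex 544/em 590) via 0.05 mM Amplex Red and 1 U/mL HRP. Substrate: Phe, Tyr, Trp at 1 mM each; enzyme 1 nM, 4 h compound pre-incubation, 120 min reaction, pH 7.0 Hepes. EC50 by nonlinear four-parameter regression, 1:3 ten-point titration.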

Structure (SMILES)	EC50 [nM]
O=C(NCc1nnc(-c2ccccc2)s1)c1cn(C2C[C@@H]2C(F)F)nn1 (single isomer, unassigned) [Example 143, Trans-1-(-2-(difluoromethyl)cyclopropyl]-N-[(5-phenyl-1,3,4-thiadiazol-2-yl)methyl]-1H-1,2,3-triazole-4-carboxamide]	179
O=C(NCc1nnc(-c2ccccc2)s1)c1cn(CC(F)(F)C(=O)O)nn1 [Example 331, 2,2-difluoro-3-(4-(((5-phenyl-1,3,4-thiadiazol-2-yl)methyl)carbamoyl)-1H-1,2,3-triazol-1-yl)propanoic acid]	382
CC(C)(C(N)=O)n1cc(C(=O)NCc2nnc(-c3ccncc3)s2)nn1 [Example 320, 1-(1-amino-2-methyl-1-oxopropan-2-yl)-N-((5-(pyridin-4-yl)-1,3,4-thiadiazol-2-yl)methyl)-1H-1,2,3-triazole-4-carboxamide]	27
O=C(NCc1nnc(-c2ccccc2)s1)c1cn([C@@H]2C[C@H]2CO)nn1 (single isomer, unassigned) [Example 141, Trans-1-(2-(hydroxymethyl)cyclopropyl)-N-((5-phenyl-1,3,4-thiadiazol-2-yl)methyl)-1H-1,2,3-triazole-4-carboxamide]	5
O=C(NCc1nnc(-c2ccccc2)s1)c1cn(CCCF)nn1 [Example 93, 1-(3-fluoropropyl)-N-((5-phenyl-1,3,4-thiadiazol-2-yl)methyl)-1H-1,2,3-triazole-4-carboxamide]	8
O=C(NCc1nnc(-c2ccccc2)s1)c1cn(CCN2CCNC2=O)nn1 [Example 125, 1-(2-(2-oxoimidazolidin-1-yl)ethyl)-N-((5-phenyl-1,3,4-thiadiazol-2-yl)methyl)-1H-1,2,3-triazole-4-carboxamide]	453
O=C(NCc1nnc(-c2ccccc2)s1)c1cn(CC2CCOC2)nn1 (centres unmarked) [Example 129, N-((5-phenyl-1,3,4-thiadiazol-2-yl)methyl)-1-((tetrahydrofuran-3-yl)methyl)-1H-1,2,3-triazole-4-carboxamide]	124
O=C(NCc1nnc(-c2ccncc2)s1)c1cn(C2CC2)nn1 [Example 243, 1-cyclopropyl-N-((5-(pyridin-4-yl)-1,3,4-thiadiazol-2-yl)methyl)-1H-1,2,3-triazole-4-carboxamide]	23
O=C(NCc1nnc(-c2ccccc2)s1)c1cn(CC(O)C(F)F)nn1 (single isomer, unassigned) [Example 138, 1-(3,3-difluoro-2-hydroxypropyl)-N-((5-phenyl-1,3,4-thiadiazol-2-yl)methyl)-1H-1,2,3-triazole-4-carboxamide]	25
Cc1ccc(-n2cc(C(=O)NCc3nnc(-c4ccsc4C)s3)nn2)c(C)n1 [Example 109, 1-(2,6-dimethylpyridin-3-yl)-N-((5-(2-methylthiophen-3-yl)-1,3,4-thiadiazol-2-yl)methyl)-1H-1,2,3-triazole-4-carboxamide]	29
O=C(NCc1nnc(-c2ccccc2)s1)c1cn(C2C3COCC32)nn1 (centres unmarked) [Example 200, 1-(3-oxabicyclo[3.1.0]hexan-6-yl)-N-((5-phenyl-1,3,4-thiadiazol-2-yl)methyl)-1H-1,2,3-triazole-4-carboxamide]	537
CC(NC(=O)c1cn(CC(F)F)nn1)c1nnc(-c2ccccc2)s1 (single isomer, unassigned) [Example 252, 1-(2,2-difluoroethyl)-N-(1-(5-phenyl-1,3,4-thiadiazol-2-yl)ethyl)-1H-1,2,3-triazole-4-carboxamide]	15
CC([C@H]1CCCO1)n1cc(C(=O)NCc2nnc(-c3ccccc3)s2)nn1 (stereo partly drawn) [Example 204, N-((5-phenyl-1,3,4-thiadiazol-2-yl)methyl)-1-(1-((R)-tetrahydrofuran-2-yl)ethyl)-1H-1,2,3-triazole-4-carboxamide]	74
O=C(NCc1nnc(-c2ccccc2)s1)c1cn(CC(O)C(F)(F)F)nn1 (centres unmarked) [Example 127, N-((5-phenyl-1,3,4-thiadiazol-2-yl)methyl)-1-(3,3,3-trifluoro-2-hydroxypropyl)-1H-1,2,3-triazole-4-carboxamide]	73
Cc1ccc(-n2cc(C(=O)NCc3nnc(-c4ccc(F)cc4)s3)nn2)c(C)n1 [Example 227, 1-(2,6-dimethylpyridin-3-yl)-N-{[5-(4-fluorophenyl)-1,3,4-thiadiazol-2-yl]methyl}-1H-1,2,3-triazole-4-carboxamide]	69
CC(NC(=O)c1cn(C2CC2)nn1)c1nnc(-c2ccccc2)s1 (single isomer, unassigned) [Example 244, 1-cyclopropyl-N-(1-(5-phenyl-1,3,4-thiadiazol-2-yl)ethyl)-1H-1,2,3-triazole-4-carboxamide]	587
Cc1cnc(-n2cc(C(=O)NCc3nnc(-c4ccccc4)s3)nn2)c(C)n1 [Example 270, 1-(3,5-dimethylpyrazin-2-yl)-N-((5-phenyl-1,3,4-thiadiazol-2-yl)methyl)-1H-1,2,3-triazole-4-carboxamide]	20
O=C(NCc1nnc(-c2ccccc2)s1)c1cn(Cc2ccccn2)nn1 [Example 101, N-((5-phenyl-1,3,4-thiadiazol-2-yl)methyl)-1-(pyridin-2-ylmethyl)-1H-1,2,3-triazole-4-carboxamide]	19
O=C(NCc1nnc(-c2ccccc2)s1)c1cc(CO)n[nH]1 [Example 4, 3-(hydroxymethyl)-N-((5-phenyl-1,3,4-thiadiazol-2-yl)methyl)-1H-pyrazole-5-carboxamide]	69
CCCc1cc(C(=O)NCc2nnc(-c3ccccc3)s2)no1 [Example 39, N-[(5-phenyl-1,3,4-thiadiazol-2-yl)methyl]-5-propyl-isoxazole-3-carboxamide]	3
O=C(NCc1nnc(-c2ccncc2)s1)c1cn(CC(F)F)nn1 [Example 347, 1-(2,2-difluoroethyl)-N-((5-(pyridin-4-yl)-1,3,4-thiadiazol-2-yl)methyl)-1H-1,2,3-triazole-4-carboxamide]	7
O=C(NCc1nnc(-c2ccccc2)s1)c1cn(C2(CF)CC2)nn1 [Example 151, 1-(1-(fluoromethyl)cyclopropyl)-N-((5-phenyl-1,3,4-thiadiazol-2-yl)methyl)-1H-1,2,3-triazole-4-carboxamide]	25
C[C@@H](O)Cn1cc(C(=O)NCc2nnc(-c3ccccc3)s2)nn1 [Example 180, (R)-1-(2-hydroxypropyl)-N-((5-phenyl-1,3,4-thiadiazol-2-yl)methyl)-1H-1,2,3-triazole-4-carboxamide]	75
O=C(NCc1nnc(-c2ccccc2)s1)c1cn(CC(F)(F)CO)nn1 [Example 176, 1-(2,2-difluoro-3-hydroxypropyl)-N-((5-phenyl-1,3,4-thiadiazol-2-yl)methyl)-1H-1,2,3-triazole-4-carboxamide]	7
CC(C)(C)c1cc(C(=O)NCc2nnc(-c3ccccc3)s2)[nH]n1 [Example 9, 3-(tert-butyl)-N-((5-phenyl-1,3,4-thiadiazol-2-yl)methyl)-1H-pyrazole-5-carboxamide]	480
Cc1ccc(-n2cc(C(=O)NCc3nnc(-c4cc(F)ccc4F)s3)nn2)c(C)n1 [Example 108, N-((5-(2,5-difluorophenyl)-1,3,4-thiadiazol-2-yl)methyl)-1-(2,6-dimethylpyridin-3-yl)-1H-1,2,3-triazole-4-carboxamide]	651

— patent publication US20240336608A1, “IL4I1 INHIBITORS AND METHODS OF USE” (Merck Sharp & Dohme LLC, priority 2023, published 2024)
